Source: ChEMBL document CHEMBL1141627, “A cell-penetrating peptidic GRP78 ligand for tumor cell-specific prodrug therapy” (Bioorg Med Chem Lett, 2008)
Positions of bridges follow the written chain, without caps; N, C: chain ends. Non-standard residues stand in square brackets, D forms with d. Residues, ends and D or L forms follow the SMILES beside them. *: point of attachment. X1 = CC(=O)O[C@H]1C(=O)[C@@]2(C)[C@H]([C@H](OC(=O)c3ccccc3)[C@]3(O)C[C@H](OC(=O)[C@H](OC(=O)OCc4ccc(N*)cc4)[C@@H](NC(=O)c4ccccc4)c4ccccc4)C(C)=C1C3(C)C)[C@]1(OC(C)=O)CO[C@@H]1C[C@@H]2O; Cit = NC(=O)NCCC[C@H](N)C(=O)O

Tested on: SJSA-1
Experiment: Cytotoxicity against human SJSA1 cells expressing GRP78 after 6 hrs by MTT assay
Assay type: functional, cell-based
Conditions: SJSA-1, 6 h

For `CC(=O)O[C@H]1C(=O)[C@@]2(C)[C@H]([C@H](OC(=O)c3ccccc3)[C@]3(O)C[C@H](OC(=O)[C@H](O)[C@@H](NC(=O)c4ccccc4)c4ccccc4)C(C)=C1C3(C)C)[C@]1(OC(C)=O)CO[C@@H]1C[C@@H]2O` [PACLITAXEL], the IC50 was 3.2 nM.

`COc1cccc2c1C(=O)c1c(O)c3c(c(O)c1C2=O)C[C@@](O)(C(=O)CO)C[C@@H]3O[C@H]1C[C@H](N)[C@H](O)[C@H](C)O1` [DOXORUBICIN] gave an IC50 of 6.2 nM.

Work on `CC(=O)N[C@H]1CSSC[C@@H](C(=O)N[C@H](C(=O)N[C@@H](CCCNC(N)=O)C(=O)N[C@H](C(=O)N[C@@H](CCCNC(N)=O)C(=O)Nc2ccc(COC(=O)O[C@@H](C(=O)O[C@H]3C[C@@]4(O)[C@@H](OC(=O)c5ccccc5)[C@@H]5[C@]6(OC(C)=O)CO[C@@H]6C[C@H](O)[C@@]5(C)C(=O)[C@H](OC(C)=O)C(=C3C)C4(C)C)[C@@H](NC(=O)c3ccccc3)c3ccccc3)cc2)C(C)C)C(C)C)NC(=O)[C@H](C(C)C)NC(=O)[C@H](CCCNC(=N)N)NC(=O)[C@H](C(C)C)NC(=O)[C@H](Cc2ccc(O)cc2)NC(=O)CNC(=O)CNC(=O)[C@@H]2CCCN2C(=O)[C@H](CC(C)C)NC(=O)[C@H](C)NC(=O)[C@H](C(C)C)NC(=O)[C@H]([C@@H](C)O)NC1=O` (Ac-CTVALPGGYVRVCV[Cit]V[Cit]-X1; disulfide 1-13) yielded an IC50 of 1.1 nM.
